Where two headings read alike, the source gives them in different places. Each block holds one compound with its values, some of them ahead of it.
Experiments:
rat = conditions: cited from earlier work
HRP-Goat A'Mouse IgG = test: Enzymatic determination of protein binding to coated medium binding polystyrene plate; conditions: coated medium binding PS; versus uncoated high binding polystyrene plate; absorbance 405 nm
Protocol: The surfactants were coated onto a medium binding polystyrene plate (Corning Costar No. 2587) as described in Material and Methods. A medium binding polystyrene plate (Corning Costar No. 2587) and a high binding polystyrene plate (Corning Costar No. 2581) were used as controls.
(a) HRP-Goat A'Mouse IgG: Kirkegaard & Perry Laboratories, Inc. Catalog No. 074-1806. Stock solution: 0.5 mg/ml; working concentration: 0.04 μg/ml. The working concentration was obtained by adding 11 μl of the stock solution per 25 mls of PBS pH 7.4 to produce a work stock (WS), and then diluting 1:6 (i.e., 10 mls WS+50 mls PBS pH 7.4).
(1) 100 μl-well of HRP-Goat A'Mouse IgG at a concentration of 0.04 μg/ml were added to the test wells and incubated for 1 hour at room temperature.
(2) The wells were then washed 5 times with the 1M wash solution. Each wash include a 5 minute soak followed by decanting.
(3) 100 μl/well of substrate (30 mls ABTS+30 mls H2O2) were added to the test wells and incubated for 15 minutes at room temperature in the dark.
(4) 100 μl/well of stopping solution (1% SDS) were added to the test wells.
(5) The plates were then shaken and read at 405 nm.
(6) Reduction in binding was determined by comparing the absorbance measured in step (5) with the absorbance measured for a high binding polystyrene plate which had not been treated with a non-ionic surfactant but otherwise subjected to steps (1) to (5).

[1] = system: BSA protein (Bovine Serum Albumin, Fraction V); test: BSA binding to coated polystyrene 24-well plates at different pH, colloidal gold stain
Protocol: Polystyrene plates having 24 wells (Corning Costar #9447) were coated as described in Materials and Methods.
BSA protein (Bovine Serum Albumin, Fraction V, Sigma) was prepared at 10 μg/ml in 0.10 M acetate buffer (pH=4.6), in 0.10 M PBS (pH=7.4), and in 0.10 M NaHCO3 buffer (pH=9.2). Wells of each coated plate, along with uncoated controls, were aliquoted 0.50 ml each of the protein solutions. The samples were run in triplicate.
The plates were placed on a rocker table for 30 minutes at 23° C. The protein solutions were then emptied from the plates, and the wells were rinsed three times with dl H2O. Thereafter, 1.0 ml of colloidal gold stain was added to each well (see Materials and Methods). The plates were placed on a rocker table overnight, rinsed three times with dI H2O, and air dried. Absorbance at 550 nm was then read using the Cambridge Technologies Plate Reader.

bound protein = test: Colloidal gold staining of bound protein after MDCK culture in media containing 5% FBS, visual; conditions: colloidal gold after cell culture, visual observation
Protocol: The procedures used were as follows. Polystyrene 24-well plates were coated with the non-ionic surfactants listed in Table 5 in accordance with the procedures described in Materials and Methods. Uncoated plates were used as a control. For comparison, plates with a covalently attached acrylamide coating (Corning Costar Catalog #2500) and with a stearic acid coating were also tested. The stearic acid coating was applied in the same manner as the non-ionic surfactants again using a 0.1% (w/v) solution.
The plates were gamma sterilized at 1.5 Mrad and then inoculated with 5.6×10^4 MDCK […] per well in 1 ml of complete media containing 5% FBS (Fetal Bovine Serum). Incubation was carried out at 37° C. in a 5% CO2 atmosphere for two days. The plates were fixed and stained, and cell attachment was noted. Following this, the wells were stained using the colloidal gold technique to detect bound protein. Only visual observations were made.

Horse IgG = test: Protein binding by colloidal gold staining, coated medium binding polystyrene plates; conditions: coated medium binding PS; IgG 10 μg/ml, pH 9.4
Protocol: Except where indicated, the non-ionic surfactants were applied to the hydrophobic surfaces being tested as a 0.1% (weight/volume) solution in isopropanol. A sufficient amount of coating solution was used to cover the surface being testing with a thin layer of the solution (e.g., 25 μl of the solution per well for a standard 24-well plate). In some cases, the solution was applied to surface by spraying; in others, it was poured onto the surface (into the well). Except where indicated, coated samples were either dried at 70° C. for 30 minutes in an air circulated oven or dried at room temperature overnight to evaporate the isopropanol.
Protein binding was determined in some examples using a colloidal gold straining procedure. In accordance with this procedure, colloidal gold becomes electrostatically attached to bound protein and is detected by measuring absorbance at 550 nanometers. Bio-Rad Laboratories' Colloidal Gold Total Protein Stain was used for this purpose, with absorbance being measured with a Cambridge Technologies Plate Reader (No. 7520).
The surfactants were coated onto medium binding polystyrene plates (Corning Costar No. 2587) as described in Material and Methods.
The plates were incubated with IgG as follows: 0.1 ml of Horse IgG (Pierce Labs) at a working concentration of 10 μg/ml in 0.10M NaHCO3 buffer (pH9.4) were added to each well, incubated 30 minutes on a rocker table, and rinsed with dI H2O. The plates were gold stained overnight (0.3 ml/well), rinsed in dI H2O, air dried, and absorbance was measured at 550 nm.

IgG [2] = test: IgG/Au staining of coated polystyrene, type of endgroups
Protocol: Except where indicated, the non-ionic surfactants were applied to the hydrophobic surfaces being tested as a 0.1% (weight/volume) solution in isopropanol. A sufficient amount of coating solution was used to cover the surface being testing with a thin layer of the solution (e.g., 25 μl of the solution per well for a standard 24-well plate). In some cases, the solution was applied to surface by spraying; in others, it was poured onto the surface (into the well). Except where indicated, coated samples were either dried at 70° C. for 30 minutes in an air circulated oven or dried at room temperature overnight to evaporate the isopropanol. Protein binding was determined in some examples using a colloidal gold straining procedure. In accordance with this procedure, colloidal gold becomes electrostatically attached to bound protein and is detected by measuring absorbance at 550 nanometers. Bio-Rad Laboratories' Colloidal Gold Total Protein Stain was used for this purpose, with absorbance being measured with a Cambridge Technologies Plate Reader (No. 7520). The non-ionic surfactants listed in Table 6 were tested for their ability to produce a low binding surface using the techniques described in Materials and Methods. Polystyrene was used as the hydrophobic test surface and IgG/Au staining was used as the readout.

[3] = system: ^125I-IgG (goat anti-mouse); test: Radiometric determination of IgG binding to surfactant-coated polystyrene microtiter wells; conditions: for Total IgG binding, Non-Sterilized: coated polystyrene wells; for Total IgG binding, Non-Sterilized / Tight IgG binding, Non-Sterilized: not sterilized; for Total IgG binding, Non-Sterilized / Total IgG binding, Sterilized: after three PBS washes; for Total IgG binding, Sterilized / Tight IgG binding, Sterilized: gamma sterilized (1.5 Mrad); for Tight IgG binding, Sterilized / Tight IgG binding, Non-Sterilized: after two hours in PBS-Tween (0.05%)
Protocol: The hydrophobic surfaces used were flat bottom microtiter plates composed of high binding polystyrene (Corning Costar No. 2581) and medium binding polystyrene (Corning Costar No. 2587). Testing was performed with and without gamma radiation sterilization using cobalt 60 (1.5 Mrad).
The surfactants were applied to the test plates as described in Materials and Methods, followed by sterilization where indicated.
Levels of protein binding were determined using a radiolabeled protein, namely, ^125I-IgG (goat anti-mouse) purchased from DuPont/NEN. Unlabeled IgG in sodium carbonate buffer pH 9.2 was spiked with ^125I-IgG so that the final concentration of labeled IgG and cold IgG in the test solution was 10 μg/mL.
Aliquots of 0.1 milliliters of the protein solution were placed in quadruplicate in the wells of 8-well strips removed from the test microtiter plates. The wells were incubated overnight at 4° C. with shaking. The supernatants were removed from the wells, followed by three washes with 0.2 mL of PBS. The wells were then dried and individually counted to determine “total” IgG binding. After determining “total” binding, the wells were incubated for two hours in 0.2 mL of PBS-Tween (0.05%) at room temperature with shaking. The supernatants were removed from the wells followed by three washes with 0.2 mL of PBS. The wells were dried and individually counted to determine “tight” IgG binding.
Untreated high binding and medium binding plates were used as controls. A comparative experiment was also performed in which a BSA protein coating was used in place of a surfactant coating. The BSA was preabsorbed onto the walls of the wells and then washed to remove excess material. Testing was then performed using the radiolabeled IgG solution as described above.
Radiolabel measurements were performed in a double blind study at BioMolecular Assays (Woburn, Mass.). IgG binding values per microwell were converted to ng/cm^2 values using a surface area of 0.94 cm^2 for a 0.1 mL volume.

IgG [4] = test: Coating durability using water washes, IgG binding by colloidal gold
Protocol: Polystyrene plates having 24 wells (Corning Costar #9447) were coated with these surfactants as described in Materials and Methods. Durability was tested by adding dI H2O to the wells of a test plate (3.0 mls/well), following which the plate was placed on a rocker table. […] The protein solution was incubated with the plate on a rocker table for 30 minutes at 23° C., following which the plate was H2O rinse 3× (3 mls each time). The colloidal gold staining procedure described above was used to reveal bound protein. The staining comprised an overnight incubation on a rocker table at 23° C., a dI H2O rinse, drying at room temperature, and reading at 550 nm.

BSA = test: Polymer blends molded into petri dishes, BSA binding by colloidal gold; conditions: blended at 5% into polypropylene; silver enhancer
Protocol: Low binding non-ionic surfactant molecules were blended at 5% (except as noted in Table 13) into a base polymer using a twin screw extruder, then injection molded into the shape of 35 mm petri dishes. Proteins tested were BSA and Fetal Bovine Serum (FBS). Protein binding was determined using a colloidal gold staining procedure as described above. In the case of the polypropylene and EVA blends, a silver enhancer was used (Sigma Chem. Co., St, Louis, Mo., Kit #SE-100).

Fetal Bovine Serum (FBS) = test: Polymer blends molded into petri dishes, FBS protein binding by colloidal gold; conditions: blended at 5% into polypropylene; silver enhancer

Compound: O=[As]O[As]=O (centres unmarked) [As2O3, reference compound]
LD50 (rat): 0.02 grams/Kg

Compound: CCCCCCCC/C=C\CCCCCCCC(=O)OCC(O)CO (centres unmarked) [GLYCEROL MONO-OLEATE]
% Reduction in Protein Binding (HRP-Goat A'Mouse IgG): 92.4%

Compound: [Cl-].[Na+] [NaCl, reference compound]
LD50 (rat; in vivo): 4 grams/Kg

Absorbance (550 nm) pH = 9.2 ([1]; BSA 10 μg/ml in 0.10 M NaHCO3 buffer): 0.00 | Absorbance (550 nm) pH = 7.4 ([1]; BSA 10 μg/ml in 0.10 M PBS): 0.00 | Absorbance (550 nm) pH = 4.6 ([1]; BSA 10 μg/ml in 0.10 M acetate buffer): 0.00 | IgG Protein Binding Absorbance (550 nm) (Horse IgG): 0.00 | Total IgG binding, Non-Sterilized [3]: 18 ng/cm^2 | Total IgG binding, Sterilized [3]: 54 ng/cm^2 | Tight IgG binding, Sterilized [3]: 25 ng/cm^2 | Tight IgG binding, Non-Sterilized [3]: 11 ng/cm^2 | % Reduction in Protein Binding (HRP-Goat A'Mouse IgG): 99.9%
Compound: CCCCCCCCCCCCCCCCOCCOCCO [PEO(2) CETYL ETHER]
Visual Color Upon Protein Staining (bound protein): None | Bound Protein Absorbance at 550 nm (IgG [2]): 0.00

Compound: CCCCCCCCCCCCCCCCCC(=O)O [STEARIC ACID, reference compound]
Visual Color Upon Protein Staining (bound protein): Very dark

Total IgG binding, Non-Sterilized [3]: 594 ng/cm^2 | Tight IgG binding, Non-Sterilized [3]: 173 ng/cm^2
Compound: BSA Protein: BSA protein coating preabsorbed onto the wells, used in place of a surfactant coating [reference compound]

Absorbance (550 nm) Initial (IgG [4]; coated polystyrene, no water wash): 0.00 | Absorbance (550 nm) 1 Time 1 hr 23° C. (IgG [4]; dI H2O wash 1 time, 1 hr, 23° C.): 0.09 | Absorbance (550 nm) 1 Time 24 hr 23° C. (IgG [4]; dI H2O wash 1 time, 24 hr, 23° C.): 0.10 | Absorbance (550 nm) 1 Time 24 hr 37° C. (IgG [4]; dI H2O wash 1 time, 24 hr, 37° C.): 0.10 | Absorbance (550 nm) 1 Time 24 hr 70° C. (IgG [4]; dI H2O wash 1 time, 24 hr, 70° C.): 0.10 | Absorbance (550 nm) 6 Times 30 min each 23° C. (IgG [4]; dI H2O wash 6 times, 30 min each, 23° C.): 0.10 | Bound Protein Absorbance (550 nm) BSA (BSA): 0.060 | IgG Protein Binding Absorbance (550 nm) (Horse IgG): 0.00 | Total IgG binding, Non-Sterilized [3]: 4 ng/cm^2 | Total IgG binding, Sterilized [3]: 5 ng/cm^2 | Tight IgG binding, Sterilized [3]: 3 ng/cm^2 | Tight IgG binding, Non-Sterilized [3]: 2 ng/cm^2 | % Reduction in Protein Binding (HRP-Goat A'Mouse IgG): 99.8% | Bound Protein Absorbance (550 nm) FBS (Fetal Bovine Serum (FBS)): 0.056
Compound: PEO(4) SORBITOL MONO-LAURATE
Bound Protein Absorbance at 550 nm (IgG [2]): 0.00

Source: patent publication US7776572B2, “Method for reducing loss of enzyme activity during storage” (Corning Incorporated, priority 1996, dated 2010)
